From the supplement of paper PMC7600603

Experiments:
Conditions in all cases: 72 h; CellTox Green cytotoxicity
DLD1 NRF2-GOF [1] = experiment: TC50 cytotoxicity; higher = less toxic
In short: (§1)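 Isogenic DLD1 colorectal cancer cells, either NRF2 wild-type or CRISPR gain-of-function, were grown in DMEM with 10% FBS. They were exposed in 384-well plates to library compounds at 5 concentrations spanning a 10,000-fold range. After 72 h, cytotoxicity was read by CellTox Green on a Pherastar FS reader and normalised to vehicle wells and 100-μM positive-control wells. TC50 and drug sensitivity score (a normalised area under the curve) came from logistic dose-response fits.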

DLD1 NRF2-WT [2] = experiment: TC50 cytotoxicity; higher = less toxic
In short: as §1

DLD1 NRF2-GOF [3] = experiment: drug sensitivity score (DSS) cytotoxicity (DSS score); higher = more toxic; extreme values may be limits of the assay
In short: as §1

DLD1 NRF2-WT [4] = experiment: as above
In short: as §1

Compound	TC50 cytotoxicity (DLD1 NRF2-GOF [1])	TC50 cytotoxicity (DLD1 NRF2-WT [2])	drug sensitivity score (DLD1 NRF2-GOF [3])	drug sensitivity score (DLD1 NRF2-WT [4])
CN(C)c1cc2c(cc1Sc1nc3c(N)nccc3n1CCNCC(C)(C)C)OCO2 [CUDC-305]	> 10 µM	> 10 µM	0	0
CC(O)(CS(=O)(=O)c1ccc(F)cc1)C(=O)Nc1ccc(C#N)c(C(F)(F)F)c1 (stereo unspecified) [Bicalutamide]	> 10 µM	> 10 µM	0	0
Cc1c(-c2ccc(N3CCc4cccc(C(=O)Nc5nc6ccccc6s5)c4C3)nc2C(=O)O)cnn1CC12CC3CC(CC(C3)C1)C2	> 1 µM		0	
CC(C)(O)CNc1nc(Nc2ccnc(C(F)(F)F)c2)nc(-c2cccc(C(F)(F)F)n2)n1 [Enasidenib]	> 10 µM	> 10 µM	0	0
N#CC1(c2ccc(NC(=O)c3cccnc3NCc3ccncc3)cc2)CCCC1 [Apatinib]	> 10 µM	> 10 µM	0	0
CC(C)(C)c1cc(NC(=O)Nc2ccc(-c3cn4c(n3)sc3cc(OCCN5CCOCC5)ccc34)cc2)no1 [Quizartinib]	> 1 µM	> 1 µM	0	0
O=C(Nc1cccc(Nc2ncc(Br)c(NCCc3cnc[nH]3)n2)c1)N1CCCC1 [BX-912]	> 10 µM	> 10 µM	2.5	2.2
COc1cc2ncnc(Nc3cccc(Cl)c3F)c2cc1OC(=O)N1CCN(C)C[C@H]1C [AZD3759]	> 1 µM	> 1 µM	0	0
CCN(CC)Cc1ccc2cc(COC(=O)Nc3ccc(C(=O)NO)cc3)ccc2c1 [Givinostat]	> 1 µM	0.344 µM	0	1.6
COc1nc(N)nc2c1ncn2[C@@H]1O[C@H](CO)[C@@H](O)[C@@H]1O [Nelarabine]	> 10 µM	> 10 µM	0	0
CN1CCN(c2cc(C(=O)Nc3ccc4c(c3)-c3c(c(C(N)=O)nn3-c3ccc(F)cc3)CC4)c(Cl)cn2)CC1 [PHA 408]	> 10 µM	> 10 µM	0	0
C[C@]12CC[C@@H]3c4ccc(O)cc4C[C@@H](CCCCCCCCC[S+]([O-])CCCC(F)(F)C(F)(F)F)[C@H]3[C@@H]1CC[C@@H]2O (stereo partly specified) [Fulvestrant]	> 1 µM	> 1 µM	0	0
O=C(/C=C\n1cnc(-c2cc(C(F)(F)F)cc(C(F)(F)F)c2)n1)NNc1ccccn1 [Verdinexor]	> 1 µM	> 1 µM	0	0
CC[C@@H](C(=O)[C@@H](C)[C@@H](O)[C@H](C)[C@@H]1O[C@@H]([C@@H](CC)C(=O)O)CC[C@@H]1C)[C@H]1O[C@]2(C=C[C@@H](O)[C@]3(CC[C@@](C)([C@H]4CC[C@](O)(CC)[C@H](C)O4)O3)O2)[C@H](C)C[C@@H]1C [Salinomycin]	> 50 µM	> 50 µM	0	0.2
Cc1cc(Nc2nc(N[C@@H](C)c3ncc(F)cn3)ncc2Cl)[nH]n1 [AZD1480]	> 1 µM	> 1 µM	0	0
CN(C)Cc1ccc(S(=O)(=O)n2ccc(/C=C/C(=O)NO)c2)cc1 [Resminostat]	> 10 µM	> 10 µM	0	0
NC(=S)N/N=C/c1ncccc1N [Triapine]	> 10 µM	> 10 µM	0	0
O=C(O)CCCCC(CCSCc1ccccc1)SCc1ccccc1 (stereo unspecified) [CPI-613]	> 10 µM	> 10 µM	0	0
O=C(c1cccc(Cl)c1F)N1CCN(Cc2cccc(Nc3nccs3)n2)CC1 [MK-8745]	1.55 µM		2.9	2
NC(=O)c1cccc(-c2cccc(OC(=O)NC3CCCCC3)c2)c1 [URB597]	> 1 µM	> 1 µM	0	0

Compound	TC50 cytotoxicity (DLD1 NRF2-GOF [1])	TC50 cytotoxicity (DLD1 NRF2-WT [2])	drug sensitivity score (DLD1 NRF2-GOF [3])	drug sensitivity score (DLD1 NRF2-WT [4])
CC(C)C[C@@H](C(=O)N[C@H](C(=O)OC1CCCC1)c1ccccc1)[C@H](O)C(=O)NO [Tosedostat]	> 10 µM		4.6	4.9
Nc1nc(Nc2ccc3c(c2)CC[C@@H](N2CCCC2)CC3)nn1-c1cc2c(nn1)-c1ccccc1CCC2 [BGB324]	> 10 µM	> 10 µM	0	0
O=C(CCCCCCNC(=O)c1cnc(N(c2ccccc2)c2ccccc2)nc1)NO [Rocilinostat]	> 10 µM	> 10 µM	0	0
CC(C)c1cc(C(=O)N2Cc3ccc(CN4CCN(C)CC4)cc3C2)c(O)cc1O [Onalespib]	> 2.5 µM	> 2.5 µM	0	0
Cn1cnc2c(F)c(Nc3ccc(Br)cc3F)c(C(=O)NOCCO)cc21 [Binimetinib]	> 1 µM	> 1 µM	0	0
O=C(O)CC1CC(c2ccccc2)=NO1 (stereo unspecified) [VGX-1027]	> 10 µM	> 10 µM	0	0
CCN(CC)CCNC(=O)c1c(C)[nH]c(/C=C2\C(=O)Nc3ccc(-c4csc(-c5ccccc5)n4)cc32)c1C [Amcasertib]	> 10 µM	> 10 µM	0	0
CC(C)[C@@H](CS(=O)(=O)C(C)C)N1C(=O)[C@@](C)(CC(=O)O)C[C@H](c2cccc(Cl)c2)[C@H]1c1ccc(Cl)cc1 [AMG-232]	> 10 µM	> 10 µM	0	0
Cc1c(F)cc(C(=O)NC2CC2)cc1-c1ccc(C(=O)NCC(C)(C)C)cn1 [Losmapimod]	> 10 µM	> 10 µM	0	0
Cc1cc2c(C(=O)NC[C@H](C)c3ccccc3)c(O)c(O)cc2c(O)c1-c1c(C)cc2c(C(=O)NC[C@H](C)c3ccccc3)c(O)c(O)cc2c1O [Sabutoclax]	> 25 µM	> 25 µM	0	0
CCOC(=O)C1=CCCC[C@H]1S(=O)(=O)Nc1ccc(F)cc1Cl [Resatorvid]	> 10 µM	> 10 µM	0	0
Cn1nccc1Nc1nccc(-c2ccn([C@H](CO)c3ccc(Cl)c(F)c3)c(=O)c2)n1 [GDC-0994]	> 10 µM	> 10 µM	0	0
Cc1cc(C(C)Nc2ccccc2)c2nc(N3CCOCC3)cc(=O)n2c1 (stereo unspecified) [TGX-221]	> 10 µM	> 10 µM	0	0
COc1ccc(Cn2ccc3ccc(C(=O)NO)cc32)cc1	> 10 µM	> 10 µM	0	0
COc1cc(C(=O)O)ccc1NC(=O)[C@@H]1N[C@@H](CC(C)(C)C)[C@](C#N)(c2ccc(Cl)cc2F)[C@H]1c1cccc(Cl)c1F [Idasanutlin]	> 10 µM	> 10 µM	0	0
NC(=O)c1cccc2cn(-c3ccc(C4CCCNC4)cc3)nc12 (stereo unspecified) [Niraparib]	> 10 µM	> 10 µM	0	0
Cc1sc2c(c1C)C(c1ccc(Cl)cc1)=N[C@@H](CC(=O)Nc1ccc(O)cc1)c1nnc(C)n1-2 [Birabresib]	> 10 µM	> 10 µM	0	0
CN1CC[C@@H](NC(=O)Nc2ccc(C#N)cc2)C[C@@H]1c1nc2ccccc2[nH]1 [Glasdegib]	> 1 µM	> 1 µM	0	0
Cc1ccc(NC(=O)c2ccc(CN3CC[C@H](N(C)C)C3)c(C(F)(F)F)c2)cc1Nc1nccc(-c2cncnc2)n1 [Bafetinib]	> 1 µM	> 1 µM	0	0
CS(=O)(=O)c1ccc(C(=O)Nc2ccc(Cl)c(-c3ccccn3)c2)c(Cl)c1 [Vismodegib]	> 10 µM	> 10 µM	0	0

Compound	TC50 cytotoxicity (DLD1 NRF2-GOF [1])	TC50 cytotoxicity (DLD1 NRF2-WT [2])	drug sensitivity score (DLD1 NRF2-GOF [3])	drug sensitivity score (DLD1 NRF2-WT [4])
C[C@@H]1CCN(C(=O)CC#N)C[C@@H]1N(C)c1ncnc2[nH]ccc12 [Tofacitinib]	> 5 µM	> 5 µM	0	0
COCCNCc1ccc(-c2cc3nccc(Oc4ccc(NC(=S)NC(=O)Cc5ccc(F)cc5)cc4F)c3s2)nc1 [Glesatinib]	> 2.5 µM	> 2.5 µM	0	0
CCNCCS(=O)(=O)NC[C@@]1(c2ccccc2)SC(NC(=O)C(C)(C)C)=NN1C(=O)C(C)(C)C [Litronesib]	> 1 µM	> 1 µM	1.6	0
CN(C(=O)c1ccc(F)cc1C(F)(F)F)C1CCN(c2nnc(-c3ccnn3C)c3ccccc23)CC1 [Taladegib]	> 10 µM	> 10 µM	0	0
CCCCNc1ncc(C(=O)NCc2ccc(-n3ccnc3)cc2)c(NC2CCC(O)CC2)n1 (stereo unspecified) [UNC2881]	> 2.5 µM	> 2.5 µM	0	0
O[C@H]1CC[C@H](Nc2ncc3nc(Nc4c(F)cc(F)cc4F)n([C@H]4CCOC4)c3n2)CC1 [Tanzisertib]	> 10 µM	> 10 µM	0	0
CC1(C)CC[C@]2(NC(=O)C(C)(F)F)CC[C@]3(C)[C@H](C(=O)C=C4[C@@]5(C)C=C(C#N)C(=O)C(C)(C)[C@@H]5CC[C@]43C)[C@@H]2C1 [Omaveloxolone]	> 10 µM	> 10 µM	0	0
C=CCN(/C=C1/C(=O)O[C@H](COC)[C@@]2(C)C1=C(O)C(=O)C1=C2[C@H](OC(C)=O)C[C@]2(C)C(=O)CC[C@@H]12)CC=C [Sonolisib]	> 10 µM	> 10 µM	0	0
CNC(=O)[C@@H](NC(=O)[C@H](CC(C)C)[C@H](O)C(=O)NO)C(C)(C)C [Marimastat]	> 10 µM	> 10 µM	0	0
CCC1(c2ccc(N)cc2)CCC(=O)NC1=O (stereo unspecified) [Aminoglutethimide]	> 10 µM	> 10 µM	0	0
C[C@H]1CNCCCN1S(=O)(=O)c1cccc2cncc(F)c12 [Ripasudil]	> 10 µM	> 10 µM	0	0
CN(CC(=O)N(Cc1ccc(C2CCCCC2)cc1)c1ccc(C(=O)O)cc1)S(=O)(=O)c1c(F)c(F)c(F)c(F)c1F [SH-4-54]	> 25 µM	> 25 µM	0	0
CCN1C(=O)CNc2ncc(-c3ccc(-c4nc[nH]n4)nc3C)nc21 [CC-115]	> 10 µM		0.1	1.4
Cn1cc(-c2ccc(F)c(C(F)(F)F)c2)nc1C1CCN(c2ncnc3[nH]ncc23)CC1	> 10 µM	> 10 µM	0	0
Nc1nc2cc(-c3ccc4ncc(C(=O)N5CCOCC5)n4c3)ccc2o1 [MLN1117]	> 10 µM	> 10 µM	0	0
CC#CC(=O)N1CC[C@@H](n2c(=O)n(-c3ccc(Oc4ccccc4)cc3)c3c(N)ncnc32)C1 [ONO-4059]	> 1 µM	> 1 µM	0	0
Nc1cccc2c1CN(C1CCC(=O)NC1=O)C2=O (stereo unspecified) [Lenalidomide]	> 100 µM	> 100 µM	0	0
Nc1nc(NC2CC2)cc(-c2cccc(Cl)c2Cl)n1 [TH588]	> 25 µM	> 25 µM	0	0
C[C@]12CC[C@H](O)CC1=CC[C@@H]1[C@@H]2CC[C@]2(C)C(c3cccnc3)=CC[C@@H]12 [Abiraterone]	> 5 µM	> 5 µM	0	0
